Results taken from patent US9376418B2, “Substituted pyridine spleen tyrosine kinase (SYK) inhibitors” (Merck Sharp & Dohme Corp., priority 2012, dated 2016).

What follows are compounds tested against T1, recombinant human GST-SYK (Homo sapiens, UniProt P43405) (assay: Homogeneous Time-Resolved Fluorescence (HTRF) assay for the recombinant human Syk enzyme). Settings: HTRF assay, recombinant human GST-SYK; IC50 given as class symbols; read-out: rhSYK Activity.
T1 construct: purchased Carna Biosciences 08-176
Type: biochemical
How it was run: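 HTRF read-out: Europium-anti-phosphotyrosine antibody (2 nM) plus SA-APC (70 nM) in EDTA-containing buffer quenched the reaction, and signal was read after 30 minutes. Kinase step used […], 250 nM biotinylated peptide, 25 μM ATP, 5 mM Mg, 45′ at room temperature.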

`Cc1cc(Nc2ncc(Cl)c(C)n2)cc(-c2ccc(C(C)(O)C3CCC(C(=O)O)CC3)nc2)c1` (single isomer, unassigned) [Example 9.82, trans-4-[(1R or 1S)-1-(5-{3-[(5-chloro-4-methylpyrimidin-2-yl)amino]-5-methylphenyl}pyridin-2-yl)-1-hydroxyethyl]cyclohexanecarboxylic acid] and `Cc1cc(Nc2nccc(C3CC3)n2)cc(-c2ccc(C(C)(O)[C@H]3CC[C@H](C(=O)O)CC3)nc2)c1` (single isomer, unassigned) [Example 9.18, trans-4-[(1R or 1S)-1-(5-{3-[(4-cyclopropylpyrimidin-2-yl)amino]-5-methylphenyl}pyridin-2-yl)-1-hydroxyethyl]cyclohexanecarboxylic acid] cannot be ordered by IC50: less than 100 nM for the first, less than 100 nM for the second.

`Cc1cc(Nc2nccc(C(F)(F)F)n2)cc(-c2ccc(CCc3nnn[nH]3)nc2)c1` [Example 13.4, N-(3-Methyl-5-{6-[2-(1H-tetrazol-5-yl)ethyl]pyridin-3-yl}phenyl)-4-(trifluoromethyl)pyrimidin-2-amine] and `Cc1cc(Nc2nccc(C(F)(F)F)n2)cc(-c2ccc(CCC(=O)O)nc2)c1` [Example 13.2, 3-[5-(3-Methyl-5-{[4-(trifluoromethyl)pyrimidin-2-yl]amino}phenyl)pyridin-2-yl]propanoic acid] cannot be ordered by IC50: less than 100 nM for the first, less than 100 nM for the second.

`Cc1cc(Nc2nccc(C(F)(F)F)n2)cc(-c2cnc(O)c(N)c2C)c1` [Example 2.51, 3-amino-4-methyl-5-(3-methyl-5-{[4-(trifluoromethyl)pyrimidin-2-yl]amino}phenyl)pyridin-2-ol] and `COC(=O)c1ccc(-c2cc(C)cc(Nc3nccc(C(F)(F)F)n3)c2)cn1` [Example 2.65, methyl 5-(3-methyl-5-{[4-(trifluoromethyl)pyrimidin-2-yl]amino}phenyl)pyridine-2-carboxylate] fall in the same range of IC50: 100 to 1000 nM for the first, 100 to 1000 nM for the second.

`Cc1cc(Nc2nccc(C(F)(F)F)n2)cc(-c2ccc(C(=O)N3CCCC34CCNC4=O)nc2)c1` (stereo not drawn) [Example 16.44, 1-{[5-(3-methyl-5-{[4-(trifluoromethyl)pyrimidin-2-yl]amino}phenyl)pyridin-2-yl]carbonyl}-1,7-diazaspiro[4.4]nonan-6-one] and `Cc1cc(Nc2nccc(C(F)(F)F)n2)cc(-c2ccc(C(=O)N3CC(=O)NC(=O)C3)nc2)c1` [Example 16.18, 4-{[5-(3-methyl-5-{[4-(trifluoromethyl)pyrimidin-2-yl]amino}phenyl)pyridin-2-yl]carbonyl}piperazine-2,6-dione] cannot be ordered by IC50: less than 100 nM for the first, less than 100 nM for the second.

First: Cc1cc(Nc2nccc(C(F)(F)F)n2)cc(-c2ccnc(N3CCCC4(CCOC4=O)C3)c2)c1 (stereo not drawn) [Example 15.30, 7-[4-(3-methyl-5-{[4-(trifluoromethyl)pyrimidin-2-yl]amino}phenyl)pyridin-2-yl]-2-oxa-7-azaspiro[4.5]decan-1-one]
Second: Cc1cc(Nc2nccc(C(F)(F)F)n2)cc(-c2ccnc(N3CCC(F)(F)CC3)c2)c1 [Example 15.70, N-{3-[2-(4,4-difluoropiperidin-1-yl)pyridin-4-yl]-5-methylphenyl}-4-(trifluoromethyl)pyrimidin-2-amine]
The IC50 of the first is lower: less than 100 nM for the first, 100 to 1000 nM for the second. The first is the more potent here.

Compared with `Cc1cc(Nc2nccc(C(F)(F)F)n2)cc(-c2ccc(C(C)(O)[C@H]3CC[C@H](C(=O)O)CC3)nc2)c1` (single isomer, unassigned) [Example 9.30, trans-4-{(1R or 1S)-1-hydroxy-1-[5-(3-methyl-5-{[4-(trifluoromethyl)pyrimidin-2-yl]amino}phenyl)pyridin-2-yl]ethyl}cyclohexanecarboxylic acid], `CCCCOC(=O)C1CCC(C(C)(O)c2ccc(-c3cc(C)cc(Nc4nccc(C(F)(F)F)n4)c3)cn2)CC1` (single isomer, unassigned) [Example 9.52, butyl trans-4-{(1R or 1S)-1-hydroxy-1-[5-(3-methyl-5-{[4-(trifluoromethyl)pyrimidin-2-yl]amino}phenyl)pyridin-2-yl]ethyl}cyclohexanecarboxylate] is higher in IC50: less than 100 nM for the first, 100 to 1000 nM for the second. The first is the more potent here.

First: Cc1cc(Nc2nccc(C(F)(F)F)n2)cc(-c2ccc(C(=O)NCc3ncnn3C)nc2)c1 [Example 16.27, N-[(1-methyl-1H-1,2,4-triazol-5-yl)methyl]-5-(3-methyl-5-{[4-(trifluoromethyl)pyrimidin-2-yl]amino}phenyl)pyridine-2-carboxamide]
Second: CNC(=O)CN(C)C(=O)c1ccc(-c2cc(C)cc(Nc3nccc(C(F)(F)F)n3)c2)cn1 [Example 16.61, N-methyl-N-[2-(methylamino)-2-oxoethyl]-5-(3-methyl-5-{[4-(trifluoromethyl)pyrimidin-2-yl]amino}phenyl)pyridine-2-carboxamide]
The IC50 of the first is higher: 100 to 1000 nM for the first, less than 100 nM for the second. The second is the more potent here.

`Cc1cc(Nc2nccc(C(F)(F)F)n2)cc(-c2ccc(C3(O)CCN(C(N)=O)CC3)nc2)c1` [Example 10.3, 4-hydroxy-4-[5-(3-methyl-5-{[4-(trifluoromethyl)pyrimidin-2-yl]amino}phenyl)pyridin-2-yl]piperidine-1-carboxamide] and `Cc1cc(Nc2nccc(C(F)(F)F)n2)cc(-c2ccc(N3CCCNCC3)nc2)c1` [Example 2.59, N-{3-[6-(1,4-diazepan-1-yl)pyridin-3-yl]-5-methylphenyl}-4-(trifluoromethyl)pyrimidin-2-amine] cannot be ordered by IC50: less than 100 nM for the first, less than 100 nM for the second.

`Cc1cc(Nc2nccc(C(F)(F)F)n2)cc(-c2ccc(/C=C(/F)C(=O)O)nc2)c1` [Example 24.4, (2E)-2-Fluoro-3-[5-(3-methyl-5-{[4-(trifluoromethyl)pyrimidin-2-yl]amino}phenyl)pyridin-2-yl]prop-2-enoic acid] and `Cc1cc(Nc2nccc(C(F)(F)F)n2)cc(-c2ccc(S(N)(=O)=O)nc2)c1` [Example 21.4, 5-(3-methyl-5-{[4-(trifluoromethyl)pyrimidin-2-yl]amino}phenyl)pyridine-2-sulfonamide] cannot be ordered by IC50: less than 100 nM for the first, less than 100 nM for the second.

`Cc1cc(Nc2nccc(C(F)(F)F)n2)cc(-c2ccnc(C(C)(O)CO)c2)c1` (stereo not drawn) [Example 9.64, 2-[4-(3-methyl-5-{[4-(trifluoromethyl)pyrimidin-2-yl]amino}phenyl)pyridine-2-yl]propane-1,2-diol] and `Cc1cc(Nc2nccc(C(F)(F)F)n2)cc(-c2ccnc(C(C)(C)O)c2)c1` [Example 9.61, 2-[4-(3-methyl-5-{[4-(trifluoromethyl)pyrimidin-2-yl]amino}phenyl)pyridin-2-yl]propan-2-ol] cannot be ordered by IC50: less than 100 nM for the first, less than 100 nM for the second.

`CCCN1CCCN(c2ccc(-c3cc(C)cc(Nc4nccc(C(F)(F)F)n4)c3)cn2)CC1` [Example 7.60, N-{3-methyl-5-[6-(4-propyl-1,4-diazepan-1-yl)pyridin-3-yl]phenyl}-4-(trifluoromethyl)pyrimidin-2-amine] and `Cc1cc(Nc2nccc(C(F)(F)F)n2)cc(-c2ccc(N3CCCC4(C3)OCCO4)nc2)c1` [Example 7.12, N-{3-[6-(1,4-dioxa-7-azaspiro[4.5]dec-7-yl)pyridin-3-yl]-5-methylphenyl}-4-(trifluoromethyl)pyrimidin-2-amine] fall in the same range of IC50: 100 to 1000 nM for the first, 100 to 1000 nM for the second.

`OC(c1ccccc1)c1ccc(-c2cccc(Nc3nccc(C(F)(F)F)n3)c2)cn1` (stereo not drawn) [Example 2.42, phenyl[5-(3-{[4-(trifluoromethyl)pyrimidin-2-yl]amino}phenyl)pyridin-2-yl]methanol] and `Cn1cc(-c2cccc(Nc3nccc(C(F)(F)F)n3)c2)ccc1=O` [Example 5.1, 1-Methyl-5-(3-{[4-(trifluoromethyl)pyrimidin-2-yl]amino}phenyl)pyridin-2(1H)-one] fall in the same range of IC50: 100 to 1000 nM for the first, 100 to 1000 nM for the second.

`Cc1cc(Nc2nccc(C(F)(F)F)n2)cc(-c2cncc(C#N)c2)c1` [Example 2.56, 5-(3-methyl-5-{[4-(trifluoromethyl)pyrimidin-2-yl]amino}phenyl)pyridine-3-carbonitrile] and `Cc1cc(Nc2nccc(C(F)(F)F)n2)cc(-c2ccc(CN3CCNC3=O)nc2)c1` [Example 17.1, 1-{[5-(3-Methyl-5-{[4-(trifluoromethyl)pyrimidin-2-yl]amino}phenyl)pyridin-2-yl]methyl}imidazolidin-2-one] cannot be ordered by IC50: less than 100 nM for the first, less than 100 nM for the second.

`Cc1cc(Nc2nccc(C3CC3)n2)cc(-c2ccc(CCC(=O)O)nc2)c1` [Example 2.101, 3-(5-{3-[(4-cyclopropylpyrimidin-2-yl)amino]-5-methylphenyl}pyridin-2-yl)propanoic acid] and `Cc1cc(Nc2nccc(C(F)(F)F)n2)cc(-c2ccc(C(=O)N3C[C@H](O)C[C@H]3C)nc2)c1` [Example 16.41, (3R,5R)-5-methyl-1-{[5-(3-methyl-5-{[4-(trifluoromethyl)pyrimidin-2-yl]amino}phenyl)pyridin-2-yl]carbonyl}pyrrolidin-3-ol] cannot be ordered by IC50: less than 100 nM for the first, less than 100 nM for the second.

Compared with `Cc1ccc(S(=O)(=O)Nc2ccc(-c3cccc(Nc4nccc(C(F)(F)F)n4)c3)nc2)cc1` [Example 2.9, 4-methyl-N-[6-(3-{[4-(trifluoromethyl)pyrimidin-2-yl]amino}phenyl)pyridin-3-yl]benzenesulfonamide], `CC[C@@H](C)[C@@H](Nc1ccc(-c2cc(C)cc(Nc3nccc(C(F)(F)F)n3)c2)cn1)C(=O)O` [Example 7.101, N-[5-(3-methyl-5-{[4-(trifluoromethyl)pyrimidin-2-yl]amino}phenyl)pyridin-2-yl]-D-isoleucine] is lower in IC50: 100 to 1000 nM for the first, less than 100 nM for the second. The second is the more potent here.

`CC(=O)NCCCNc1ccc(-c2cc(C)cc(Nc3nccc(C(F)(F)F)n3)c2)cn1` [Example 7.64, N-(3-{[5-(3-methyl-5-{[4-(trifluoromethyl)pyrimidin-2-yl]amino}phenyl)pyridin-2-yl]amino}propyl)acetamide] and `Cc1cc(Nc2nccc(C(F)(F)F)n2)cc(-c2ccc(N[C@@H](CC(C)C)C(=O)O)nc2)c1` [Example 7.111, N-[5-(3-methyl-5-{[4-(trifluoromethyl)pyrimidin-2-yl]amino}phenyl)pyridin-2-yl]-L-leucine] cannot be ordered by IC50: less than 100 nM for the first, less than 100 nM for the second.

For `Cc1cc(Nc2nccc(C(F)(F)F)n2)cc(-c2ccnc(NC(C)(CO)CO)c2)c1` [Example 15.49, 2-methyl-2-{[4-(3-methyl-5-{[4-(trifluoromethyl)pyrimidin-2-yl]amino}phenyl)pyridin-2-yl]amino}propane-1,3-diol], the IC50 was less than 100 nM.
